From patent US20150211028A1, “Production of 1,3-Propanediol in Cyanobacteria” (Algenol Biofuels Inc., priority 2013, published 2015)

Columns and labels:
[1] = system: Synechocystis sp. PCC 6803; assay: Tolerance testing: growth (OD750) after a one time bolus of 1,3-propanediol; type: cell-based; conditions: OD750 monitored for one week
Description: (§1) The tolerance of cyanobacterial strains Synechocystis sp. PCC 6803 and Synechococcus sp. PCC 7002 to the presence of accumulated 1,3-propanediol in the culture medium was examined by adding a one time bolus of varying amounts of 1,3-propanediol (ranging from 0.05% to 5%) to exponential phase cultures and comparing the growth of these cultures to a wild type culture with no addition. Growth was monitored by optical density (OD750) for one week. There was no effect on the growth of Synechocystis sp. PCC 6803 in the presence of up to 1% 1,3-propanediol compared to the control (no addition of 1,3-propanediol). […] At 5% 1,3-propanediol, Synechocystis sp. […] There was no effect on the growth of Synechococcus sp. PCC 7002 with up to 1% 1,3-propanediol addition.

[2] = system: Synechococcus sp. PCC 7002; assay: as above; type: cell-based; conditions: OD750 monitored for one week
Description: as §1

OCCCO [1,3-propanediol]
effect on growth compared to the control ([1]; 2% and 3% 1,3-propanediol in culture medium): inhibition effect resulting in a yellowing discoloration of the culture, slower growth and clumping
survival of the culture ([1]; 5% 1,3-propanediol in culture medium): could not survive and bleached out after 3 days
effect on growth compared to the control ([1]; up to 1% 1,3-propanediol in culture medium, exponential phase culture): no effect
survival of the culture ([2]; 2% 1,3-propanediol addition): lethal resulting in a completely bleached culture
effect on growth compared to the control ([2]; up to 1% 1,3-propanediol addition, exponential phase culture): no effect
